Assay: In vitro cytotoxicity tested as inhibitory concentration against carcinoma KB cell line
Type: functional, cell-based
Conditions: Homo sapiens

Structure (SMILES) | IC50 [µM]
CO[C@@H]1CCOP(=O)(NCCCl)N1CCCl (stereo partly drawn) | 22
CO[C@H]1CCOP(=O)(NCCCl)N1CCCl (stereo partly drawn) | 20
O=P1(NCCCl)OCCC(O)N1CCCl (stereo not drawn) [ALDOIFOSFAMIDE] | 10
